Test results taken from patent US20240156832A1, “METHODS OF METABOLIZING METOPIMAZINE AND ITS SALTS” (Neurogastrx, Inc., priority 2020, published 2024).
Entries after “also recorded” stand apart in the source; their conditions may differ.

Assays:
[1] = Incubation of MPZ in human liver S9; format: in vitro ADME; details: human liver S9, 60-minute incubation
Method: Initial experiment was conducted with S9 fractions from liver and intestine to assess the role of liver and intestinal enzymes in the metabolism of MPZ. The reaction mixture contained 2.5 μM MPZ, pooled human liver or intestine S9 fraction (1 mg/mL S9 protein), 100 mM KPi buffer (pH 7.4). The reaction mixture was pre-incubated for 3-5 min at 37° C. in a humidified incubator filled with 5% CO2 followed by the addition of NADPH (1 mM) to initiate the reaction. The reaction was incubated for 0 and 60 min. The total percentage of organic solvent in incubation mixture was <0.1%. The reactions were terminated by the addition of sample mixture of acetonitrile and ethanol (90:10, v/v). The positive control substrate, 7-EC, was incubated in triplicate in an identical manner as MPZ for S9 fractions.

[2] = Method: For protein concentration optimization, MPZ at 1 μM was incubated with varying concentration of HLM proteins (0.1, 0.25, 0.5, and 1.0 mg/mL microsomal protein), 100 mM KPi buffer (pH 7.4). After pre-incubation for 3-5 minutes at 37° C., the reaction was initiated by the addition of NADPH (1 mM) for 60 minutes in triplicates.
For incubation time optimization, MPZ at 1 μM was incubated with pooled HLM (0.5 mg/mL microsomal protein) and 100 mM KPi buffer (pH 7.4). After pre-incubation for) for 3-5 minutes at 37° C., the reaction was initiated by the addition NADPH (1 mM) incubated for 0, 10, 20, 40, 60, and 90 minutes to determine the optimal incubation time (linear range). All metabolic reactions in this study were terminated by the addition of chilled organic solvent (acetonitrile:ethanol 90:10, v/v) containing internal standards, unless otherwise indicated.
LC separation conditions were developed for MPZ and its metabolites (MPZA and MPZS), 7 hydroxycoumarin, each metabolite of CYP probe substrate, benzydamine N oxide, and phthalazine. The LC MS/MS system consisted of a Shimadzu Nexera X2 LC-30 UPLC system (Shimadzu Corporation, Kyoto, Japan), and an API 4000 triple quadrupole mass spectrometer (SCIEX, Framingham, MA) was used for analysis. All analytes were analyzed using electrospray ionization (ESI) in positive ion mode except for 7-EC, which used negative ion mode. The LC-MS/MS system was controlled by Analyst software (version 1.6.1, SCIEX, Framingham, MA).
For each analytical method, a calibration curve was generated for the quantification of MPZ and its two metabolites (MPZA and MPZS). […] PAR was also used for all positive control compounds.
% parent remaining=(mean concentration or PAR at each sampling time point/mean concentration or PAR of time zero)×100

[3] = system: human microsomal liver amidase; test: Incubations with HLM for microsomal hydrolase/amidase activity; format: in vitro ADME
Method: Incubations with HLM for Microsomal Hydrolase/Amidase Activity Prior to the reaction for amidase activity, the reaction mixture containing KPi buffer (pH 7.4, 8.4, or 9.4) and HLM was pre-incubated at 50° C. for 5 minutes to inactivate CYP and FMO activities in HLM. The mixture was placed on ice to cool down. An aliquot was taken out which was considered as t=0 min incubation. Then 10 μM MPZ was added into the remaining mixture and incubated at 37° C. on an orbital shaker for 60 minutes. A parallel set of incubations was conducted with 10 μM MPZ in the presence at 2 and 16 μM, of BNPP (a known inhibitor of amidase). All reactions were in triplicate. The total percentage of organic solvent in incubation mixture was ≤0.1%. The reactions were terminated by the addition of chilled acetonitrile: methanol, 90:10, (v/v). The samples were vortex-mixed and stored at ≤−70° C. and were subjected analyzed by LC MS/MS.

[4] = system: cytochrome P450 enzymes in HLM; test: HLM incubation with CYP inhibitors, with and without NADPH; details: peak area ratio, 60 min, ABT 1 mM, quinidine 1 μM
Method: Initially, two sets of incubations were conducted with HLM (0.5 mg/mL microsomal protein), 1 and 1011M MPZ, 100 mM KPi buffer (pH 7.4) where one set was in the presence and the other set was in the absence of 1 mM ABT, a non-specific CYP inhibitor for 60 minutes. This allowed the assessment of total CYP contribution for MPZ metabolism. Then, CYP-specific chemical inhibitors were used to assess the contribution of individual major CYP-isoforms where HLM were incubated with 1 or 1011M MPZ in the presence and in the absence of each CYP specific inhibitor at 37° C. for 60 minutes. The following CYP-isoform specific chemical inhibitors were used; furafylline (10 μM), tranylcypromine (10 μM), montelucast (0.5 μM), sulfaphenazole (5 μM), (+) benzylnirvinol (5 μM), quinidine (1 μM) and itraconazole (2.5 μM), for CYP1A2, CYP2B6, CYP2C8, CYP2C9, CYP2C19, CYP2D6 and CYP3A4/5. Parallel incubation with seven CYP specific probe substrates were included in as positive controls. For negative control reaction, MPZ was incubated at 37° C. in duplicate in reaction mixture devoid of NADPH. All other procedures were the same as previously described.

microsomal FMOs in HLM = test: Incubation with HLM for FMO (pH 8.4, methimazole, heat); format: in vitro ADME, human; details: HLM pH 8.4, 1 mM methimazole
Method: MPZ, at 1.0 and 10.0 μM, was incubated with HLM or HKM to determine the contribution of microsomal FMOs on the metabolism of MPZ.
A reaction mixture containing KPi buffer (pH 8.4), HLM or HKM (0.5 mg/mL protein) and MPZ (1.0 and 10.0 μM) was pre-incubated for 3-5 minutes at 37° C. The reaction was initiated by the addition of NADPH into the reaction mixture. Reaction was conducted for 0 and 60 min. A positive control (benzydamine, 100 μM) was incubated in duplicate for 0 and 20 minutes. Parallel incubation was conducted by adding 1 mM methimazole, a non-specific FMO inhibitor, under identical conditions. Heat inactivated microsomes (50° C. for at least 5 minutes) was incubated under identical conditions negative control. All other procedures were the same as described previously.

Compound: metopimazine sulfoxide [MPZS]
- metabolites formed [1]: formed
- Peak Area at Time 0 [2]: 0
- Peak Area at Time 90 min [2]: 59

Compound: O=[N+]([O-])c1ccc(OP(=O)(O)Oc2ccc([N+](=O)[O-])cc2)cc1 [BNPP, bis(4-nitrophenyl) phosphate]
- activity (MPZA formation) inhibited ([3]; BNPP 2 μM, HLM, 10 μM MPZ, even at the highest pH): at least 97%
- MPZA formation inhibited ([3]; BNPP 16 μM, HLM, 10 μM MPZ, all three pH values): > 99%
- inhibition of MPZA formation in HLM (in words) ([3]; BNPP 2 and 16 μM, pH 7.4, 8.4, 9.4): dramatically inhibited the formation of MPZA in HLM; also recorded: effectively inhibits formation of MPZA under all conditions

Compound: C=C[C@H]1C[N@@]2CC[C@H]1C[C@@H]2[C@@H](O)c1ccnc2ccc(OC)cc12 [quinidine, reference compound]
- effect of CYP inhibitor on MPZH formation [4]: inhibited formation of MPZH

Compound: Cn1cc[nH]c1=S [methimazole, reference compound]
- effect of FMO inhibitor on MPZA formation (microsomal FMOs in HLM): not inhibited
